Results published in patent US10759796B2, “CXCR4 inhibitors and uses thereof” (X4 Pharmaceuticals, Inc., priority 2016, dated 2020).

Columns and labels:
[1] = target: Jurkat cells expressing CXCR4 (Homo sapiens (Human), UniProt P61073); assay: Chemokine (CXCL12-AF647) binding inhibition assay; settings: CXCL12-AF647 25 ng/mL, read-out: IC50 CXCL-12 binding Jurkat
Protocol: Chemokine (CXCL12-AF647) Binding Inhibition Assay
Jurkat cells expressing CXCR4 were washed once with assay buffer (Hanks' balanced salt solution with 20 mM HEPES buffer and 0.2% bovine serum albumin, pH 7.4) and then incubated for 15 min at room temperature with the test compounds diluted in assay buffer at dose-dependent concentrations. Subsequently, CXCL12-AF647 (25 ng/mL) was added to the compound-incubated cells. The cells were incubated for 30 min at room temperature. Thereafter, the cells were washed twice in assay buffer, fixed in 1% paraformaldehyde in PBS, and analyzed on the FL4 channel of a FACSCalibur flow cytometer equipped with a 635-nm red diode laser (Becton Dickinson, San Jose, Calif., USA).
The percentages of inhibition of CXCL12-AF647 binding were calculated according to the formula: [1−((MFI−MFINC)/(MFIPC−MFINC))]×100 where MFI is the mean fluorescence intensity of the cells incubated with CXCL12-AF647 in the presence of the inhibitor, MFINC is the mean fluorescence intensity measured in the negative control (i.e., autofluorescence of unlabeled cells), and MFIPC is the mean fluorescence intensity of the positive control (i.e., cells exposed to CXCL12-AF647 alone).

[2] = target: CXCR-4 transfected U87 cell line (U87.CXCR4) (Homo sapiens (Human), UniProt P61073); assay: Intracellular CXCL-12-induced calcium mobilization assay (FLIPR); type: cell-based; settings: U87.CXCR4 cells, CXCL-12 25-50 ng/mL; read-out: IC50 CXCL-12 Ca2+ flux U87.CXCR4+
Protocol: Example 28: REGA Screening Assay
Intracellular CXCL-12-Induced Calcium Mobilization Assay
Intracellular calcium mobilization induced by chemokines or chemokine-derived peptides were evaluated using a calcium responsive fluorescent probe and a FLIPR system. The CXCR-4 transfected U87 cell line (U87.CXCR4) cells were seeded in gelatine-coated black-wall 96-well plates at 20,000 cells per well and incubated for 12 hours. Cells were then loaded with the fluorescent calcium probe Fluo-2 acetoxymethyl at 4 μM final concentration in assay buffer (Hanks' balanced salt solution with 20 mM HEPES buffer and 0.2% bovine serum albumin, pH 7.4) for 45 min at 37° C. The intracellular calcium mobilization induced by the CXCL-12 (25-50 ng/mL) was then measured at 37° C. by monitoring the fluorescence as a function of time in all the wells simultaneously using a fluorometric imaging plate reader (FLIPR Tetra, Molecular Devices).

in vitro = settings: human, Caco-2, pH 7.4
Protocol: Example 28: Caco-2 Permeability Assay
The goal of this assay was to evaluate the intestinal absorption potential of drug candidates using Caco-2 cell lines.
1. Prewarm Prewarm HBSS Buffer in 37° C. water bath
2. Sonicate Take compounds from −20° C., sonicate for a few minutes (no less than 1 minute)
HBSS buffer with 0.3% DMSO and 5 μM LY: add 150 μL DMSO and 50 μL LY (5 mM) into 50 ml HBSS buffer (pH 7.4).
HBSS buffer with 0.1% DMSO and 5 μM LY: add 50 μL DMSO and 50 μL LY (5 mM) into 50 mL HBSS buffer (pH 7.4).
HBSS buffer with 0.3% DMSO: add 150 μL DMSO into 50 ml HBSS buffer (pH 7.4).
HBSS buffer with 0.1% DMSO: add 50 μL DMSO into 50 ml HBSS buffer (pH 7.4).
Receiver Solution Buffer:
Prepare HBSS buffer with 0.4% DMSO: add 200 μL DMSO into 50 ml HBSS buffer (pH 7.4).
Prepare HBSS buffer with 0.4% DMSO and 5 μM LY: add 200 μL DMSO and 50 μL LY (5 mM) into 50 ml HBSS buffer (pH 7.4).
4. Measure TEER Take cell culture plate out of incubator, wash the cell monolayers with HBSS buffer, and then measure TEER values at Rm temperature. 5. Centrifuge Centrifuge the compound solution (from step 3) at 4000 rpm for 5 min before loading to donor chambers. 6. Dosing Add solution based on the volumes listed in the following table (make sure to take extra 100 μL of donor sample for TO as Backup).
7. Apical LYT0 Samples To determine LY concentration in the apical chember, take 100 μL sample from apical chambers into an opaque plate for LYT0. 8. Prewarm Prewarm apical and basolateral plates at 37° C. for about 5 min, then begin transport by placing the apical plate onto basolateral plate. 9. Incubation Keep the plates in incubator at 37° C. for 90 min. 10. Standard Curve Preparation
For 300 μM compound solution, add 6 μL of compound stock solution into 192 μL of MeOH/H2O (1:1).
Prepare Working Solution in MeOH/H2O (1:1)
3 μL (20×)+57 μL of 0.4% DMSO HBSS+60 μL ACN with IS (Osalmid or Imipramine) - - - 120 μL (1×)
11. Transport Termination Separate the apical plate from the basolateral plate after 90-min incubation.
12. Measure LY Take 100 μL samples from basolateral plate to an opaque plate as LYT90.
13. Measure LY concentrations for LYT0 and LYT90 by Fluorometer (at excitation of 485 nm/emission of 535 nm).
Study details: Test concentration 10 μM
Test systems: Caco-2/HBSS solution
Incubation conditions: 0, 90 min at 37° C.
Sample size: Duplicates (n=2)
Bioanalytical method: LC-MS/MS
For Millicell-24 Cell Culture Plates: surface area of the membrane=0.7 cm^2, VA=0.8 mL (A-to-B) or 0.4 mL (B-to-A)
1. Papp values were calculated based on calculated concentrations.
The compound numbers correspond to the compound numbers in Table 1.

Chain of Jurkat cells expressing CXCR4 (P61073 whole entry): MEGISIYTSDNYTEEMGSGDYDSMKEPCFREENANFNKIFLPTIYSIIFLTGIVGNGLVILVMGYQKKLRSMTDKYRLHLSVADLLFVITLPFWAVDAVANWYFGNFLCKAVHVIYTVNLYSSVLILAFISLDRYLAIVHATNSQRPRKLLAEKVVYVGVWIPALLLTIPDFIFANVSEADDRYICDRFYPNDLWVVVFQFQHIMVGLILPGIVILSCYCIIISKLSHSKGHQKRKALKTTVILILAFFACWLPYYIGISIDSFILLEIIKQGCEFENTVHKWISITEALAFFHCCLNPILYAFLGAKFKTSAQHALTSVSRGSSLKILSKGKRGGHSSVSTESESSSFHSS
Chain of CXCR-4 transfected U87 cell line (U87.CXCR4) (P61073 whole entry): as above

SMILES | IC50 [1] [nM] | IC50 [2] [nM] | Papp A→B at 90 min, 10 μM (in vitro) [×10⁻⁶ cm/s] | Papp B→A at 90 min, 10 μM (in vitro) [×10⁻⁶ cm/s] | efflux ratio at 90 min, 10 μM (in vitro)
Cc1cccnc1[C@@H]1CCC[C@H](c2nc3c(N)ccc(N4CCN(C)CC4)n3c2Cl)N1C [Compound I-164] | 0.01 to 100 | 0.01 to 100 | 10 to 30 | 10 to 30 | 0.1 to 10
Cc1cccnc1[C@@H]1CCC[C@H](c2cn3ccccc3n2)N1CCc1cnccn1 [Compound I-9] | 0.01 to 100 | 0.01 to 100 | 10 to 30 | 10 to 30 | 0.1 to 10
Cc1cccnc1[C@@H]1CCC[C@H](c2cn3c(N4CC5CCC(C4)N5)cccc3n2)N1C [Compound I-109] | 0.01 to 100 | 100 to 1000 | 0.1 to 10 | 10 to 30 | > 30
Cc1cccnc1[C@@H]1CCC[C@H](c2nc3ccccn3c2COC2CCCN(C)C2)N1C (some centres unmarked) [Compound I-63] | 0.01 to 100 | 100 to 1000 | 0.1 to 10 | 10 to 30 | 10 to 30
Cc1cccnc1[C@@H]1CCC[C@H](c2cn3c(N4CCN(C(C)C)CC4)cccc3n2)N1C [Compound I-15] | 0.01 to 100 | 0.01 to 100 | 0.1 to 10 | 10 to 30 | 0.1 to 10
CN(C)C1CCN(c2cccc3nc([C@H]4CCC[C@@H](c5ncccc5Cl)N4C)c(Cl)n23)CC1 [Compound I-132] | 0.01 to 100 | 100 to 1000 | 0.1 to 10 | 0.1 to 10 | 0.1 to 10
CCOCc1c([C@H]2CCC[C@@H](c3ncccc3C)N2C)nc2cccc(N3CCN(C4CC4)CC3)n12 [Compound I-58] | 100 to 1000 | ≥ 1000 | 10 to 30 | 10 to 30 | 0.1 to 10
Cc1cccnc1[C@H]1CCC[C@@H](c2nc3ccccn3c2CCCN2CCN(C)CC2)N1C (stereo in doubt) [Compound I-25] | 0.01 to 100 | 0.01 to 100 | 0.1 to 10 | 10 to 30 | > 30
CCN1[C@@H](c2nc3cccc(N4CCN(C(C)C)CC4)n3c2Br)CCC[C@H]1c1ncccc1C [Compound I-45] | 100 to 1000 | ≥ 1000 | 0.1 to 10 | 0.1 to 10 | 0.1 to 10
CN1CCN(c2cccc3nc([C@H]4CCC[C@@H](c5ncccc5Cl)N4)cn23)CC12CC2 [Compound I-160] | 100 to 1000 | ≥ 1000 | 10 to 30 | 10 to 30 | 0.1 to 10
CCN1CCN(c2cccc3nc([C@H]4CCC[C@@H](c5ncccc5Cl)N4C)cn23)CC1 [Compound I-151] | 0.01 to 100 | 100 to 1000 | 10 to 30 | 10 to 30 | 0.1 to 10
Cc1cccnc1[C@@H]1CCC[C@H](c2nc3cccc(N4CCN(C5CC5)CC4)n3c2Cl)N1C [Compound I-93] | 0.01 to 100 | 100 to 1000 | 10 to 30 | 0.1 to 10 | 0.1 to 10
CCN1CCN(c2cccc3nc([C@H]4CCC[C@@H](c5ncccc5C(C)C)N4C)c(CO)n23)CC1 [Compound I-75] | 100 to 1000 | ≥ 1000 | 0.1 to 10 | 10 to 30 | 0.1 to 10
Cc1cccnc1[C@@H]1CCC[C@H](c2nc3ccccn3c2[C@@H](O)C2CCN(C)CC2)N1C [Compound I-54] | 0.01 to 100 | 0.01 to 100 | 0.1 to 10 | 0.1 to 10 | > 30
Cc1cccnc1[C@@H]1CCC[C@H](c2nc3cccc(N4CCN5CCCC5C4)n3c2Cl)N1C (some centres unmarked) [Compound I-113] | 0.01 to 100 | 0.01 to 100 | 0.1 to 10 | 0.1 to 10 | 0.1 to 10
C#Cc1c([C@H]2CCC[C@@H](c3ncccc3C)N2C)nc2cccc(N3CCN(C)CC3)n12 [Compound I-89] | 0.01 to 100 | 0.01 to 100 | 0.1 to 10 | 0.1 to 10 | 0.1 to 10
COCc1c([C@H]2CCC[C@@H](c3ncccc3C)N2C)nc2cccc(N3CCN(C)CC3)n12 [Compound I-12] | 0.01 to 100 | 0.01 to 100 | 0.1 to 10 | 10 to 30 | 0.1 to 10
CN1CCN(c2cccc3nc([C@H]4CCC[C@@H](c5ncccc5C5CC5)N4)c(Cl)n23)CC1 [Compound I-180] | 0.01 to 100 | 0.01 to 100 | 10 to 30 | 10 to 30 | 0.1 to 10
Cc1cccnc1[C@@H]1CC(=O)C[C@H](c2cn3c(N4CCN(C)CC4)cccc3n2)N1C [Compound I-3] | 0.01 to 100 | 0.01 to 100 | 0.1 to 10 | 0.1 to 10 | 0.1 to 10
